We go through six molecules from ChEMBL document CHEMBL4251644, “Synthesis and biological characterization of novel rose bengal derivatives with improved amphiphilicity for sono-photodynamic therapy” (Eur J Med Chem, 2018).

Data set [1] deals with MCF7. Kind of data set: Toxicity in human MCF7 cells up to 5 uM incubated in dark for 24 hrs by MTT assay. The class given is cell-based. The settings on record: mcf7, 24 h.
The test system of data set [2] is B16-F10. Kind of data set: Toxicity in mouse B16F10 cells up to 5 uM incubated in dark for 24 hrs by MTT assay. The class given is cell-based. The following applies: b16-f10, 24 h.
The nature of data set [3]: Drug uptake in mouse B16F10 cells assessed as localization in lysosomes at 5 uM after 1.5 hrs by LysoTracker staining-based fluorescence assay. The class given is ADME, subcellular, Lysosome. The following applies: b16-f10, 1.5 h.
Data set [4] relates to MCF7. The data set is described as follows: Photodynamic anticancer activity in human MCF7 cells preincubated for 2 hrs followed by light exposure at 27 J/cm2 for 30 mins and subsequent incubation for 24 hrs by MTT assay. The settings on record: MCF7, light or radiation study. In general terms: Tetrazolium dyes change colour on reduction, which living cells bring about.
Data set [5] relates to HepG2. Kind of data set: In vitro sonodynamic anticancer activity against human HepG2 cells at 25 uM preincubated for 2 hrs followed by exposure to ultrasound at 1.0 MHz and 2 W/cm2 intensity for 3 mins and subsequent incubation for 24 hrs by MTT assay. The class given is functional, cell-based.
Data set [6] is described as follows: Drug uptake in human HepG2 cells at 5 uM after 2 hrs by confocal microscopy. The settings on record: hepg2, 2 h. In kind it is ADME, cell-based.
Data set [7] has as its system HepG2. Kind of data set: Photodynamic anticancer activity in human HepG2 cells preincubated for 2 hrs followed by light exposure at 27 J/cm2 for 30 mins and subsequent incubation for 24 hrs by MTT assay. The following applies: HepG2, light or radiation study.
The subject of data set [8] is B16-F10. Kind of data set: Photodynamic anticancer activity in mouse B16F10 cells preincubated for 2 hrs followed by light exposure at 27 J/cm2 for 30 mins and subsequent incubation for 24 hrs by MTT assay. The settings on record: B16-F10, light or radiation study.
Data set [9] is described as follows: Drug uptake in mouse B16F10 cells assessed as localization in mitochondria at 5 uM after 1.5 hrs by MitoTracker Green staining-based fluorescence assay. In kind it is ADME. The following applies: b16-f10, 1.5 h.
A short description of data set [10]: Octanol-water partition coefficient, log P of the compound after 10 mins. The class given is physicochemical.
Data set [11] relates to HepG2. The data set is described as follows: Toxicity in human HepG2 cells up to 5 uM incubated in dark for 24 hrs by MTT assay. In kind it is cell-based. The settings on record: hepg2, 24 h.
For data set [12], the system named is HepG2. The data set is described as follows: Induction of intracellular ROS generation in human HepG2 cells at 1 uM preincubated for 2 hrs followed by exposure to ultrasound at 1.0 MHz and 2 W/cm2 intensity for 3 mins followed by immediate irradiation with light at 27 J/cm2 for 30 mins by DCFH-DA staining-based fluorescence analysis. In kind it is functional, cell-based.

Data set [13] concerns HepG2. Kind of data set: Induction of intracellular ROS generation in human HepG2 cells at 1 uM preincubated for 2 hrs followed by exposure to ultrasound at 1.0 MHz and 2 W/cm2 intensity for 3 mins by DCFH-DA staining-based fluorescence analysis. In kind it is functional, cell-based.
In data set [14] the test system is HepG2. The data set is described as follows: Induction of intracellular ROS generation in human HepG2 cells at 1 uM preincubated for 2 hrs followed by light exposure at 27 J/cm2 for 30 mins by DCFH-DA staining-based fluorescence analysis. The class given is functional, cell-based.
The test system of data set [15] is HepG2. Kind of data set: In vitro sono-photodynamic anticancer activity against human HepG2 cells at 0.5 uM preincubated for 2 hrs followed by exposure to ultrasound at 1.0 MHz and 2 W/cm2 intensity for 3 mins followed by immediate irradiation with light at 27 J/cm2 for 30 mins and subsequent incubation for 24 hrs by MTT assay. The class given is functional, cell-based.

Activity calls are given as the source filed them. The calls are words filed in the database; no cut-off is given here.

Usually IC50 stands for the concentration that gives 50% inhibition. A lower IC50 goes with higher potency. As usually defined, the logP is the decadic logarithm of the partition coefficient of the neutral form, usually between octanol and water. Lower therefore signals lower lipophilicity. As for `O=C(CCCCCCCOC(=O)c1c(Cl)c(Cl)c(Cl)c(Cl)c1-c1c2cc(I)c(=O)c(I)c-2oc2c(I)c(O)c(I)cc12)Nc1cccc2ccccc12`, the Activity result with MCF7 [1], in the data set on B16-F10 [2] and with HepG2 [11] was “Non-Toxic” each time. Also, the Drug uptake entry in [3], in [6] and in data set [9] was “Active” each time. Besides, the IC50 in the data set on MCF7 [4] came to 1260 nM; in the data set with HepG2 [7] it was 880 nM; in the data set with B16-F10 [8], 1440 nM. Besides, the outcome with HepG2 [5] was inactive. For the same molecule, the logP at 10 min in [10] was 0.94.
Consider `COCCOCCOC(=O)CCCCCCCOC(=O)c1c(Cl)c(Cl)c(Cl)c(Cl)c1-c1c2cc(I)c(=O)c(I)c-2oc2c(I)c(O)c(I)cc12`, for which the Activity entry in the data set on MCF7 [1], in the data set on B16-F10 [2] and with HepG2 [11] was “Non-Toxic” in each case. Moreover, the outcome in the data set on HepG2 [12], in the data set on HepG2 [5], in the data set with HepG2 [14] and in the data set with HepG2 [15] was Active. In addition, the Drug uptake result in data set [3], in [6] and in data set [9] was “Active” throughout. The IC50 in the data set with MCF7 [4] was 460 nM; in the data set on HepG2 [7], 280 nM; in the data set with B16-F10 [8], 780 nM. The result in the data set on HepG2 [13] was inactive. Moreover, the logP at 10 min in data set [10] stood at 0.92.
`O=C(O)CCCCCCCOC(=O)c1c(Cl)c(Cl)c(Cl)c(Cl)c1-c1c2cc(I)c(=O)c(I)c-2oc2c(I)c(O)c(I)cc12`: the Activity result in the data set on MCF7 [1], in the data set with B16-F10 [2] and with HepG2 [11] was “Non-Toxic” each time. Moreover, the Drug uptake entry in data set [3], in data set [6] and in [9] was “Active” throughout. In addition, the results for the IC50 in the data set on MCF7 [4], in the data set with HepG2 [7] and in the data set on B16-F10 [8] were 2880 nM, 2150 nM and 2170 nM, respectively. The logP at 10 min in data set [10] was found to be 0.91.
With `O=C([O-])c1c(Cl)c(Cl)c(Cl)c(Cl)c1-c1c2cc(I)c(=O)c(I)c-2oc2c(I)c([O-])c(I)cc12.[Na+].[Na+]` [ROSE BENGAL SODIUM], the Activity entry in the data set with MCF7 [1], in the data set with B16-F10 [2] and in the data set on HepG2 [11] was “Non-Toxic” throughout. Moreover, the Drug uptake entry in data set [3], in data set [6] and in [9] was “Active” each time. In addition, the IC50 with MCF7 [4], in the data set on HepG2 [7] and in the data set on B16-F10 [8] was over 5000 nM each time. Also, the logP at 10 min in data set [10] was -0.56.
Turning to `O=C(CCCCCCCOC(=O)c1c(Cl)c(Cl)c(Cl)c(Cl)c1-c1c2cc(I)c(=O)c(I)c-2oc2c(I)c(O)c(I)cc12)Nc1cccc2cccnc12`, the Activity entry in the data set on MCF7 [1], in the data set on B16-F10 [2] and in the data set on HepG2 [11] was “Non-Toxic” each time. For the same molecule, the Drug uptake entry in data set [3], in data set [6] and in data set [9] was “Active” in each case. Moreover, the IC50 was 850 nM with MCF7 [4], 610 nM in the data set with HepG2 [7] and 1190 nM with B16-F10 [8]. The result with HepG2 [5] was inactive. The same molecule registered a logP at 10 min in data set [10] of 1.21.
For `COCCOCCOCCOCCOC(=O)CCCCCCCOC(=O)c1c(Cl)c(Cl)c(Cl)c(Cl)c1-c1c2cc(I)c(=O)c(I)c-2oc2c(I)c(O)c(I)cc12`, the Activity entry in the data set on MCF7 [1], in the data set on B16-F10 [2] and in the data set on HepG2 [11] was “Non-Toxic” in each case. In addition, the Drug uptake entry in data set [3], in [6] and in data set [9] was “Active” in each case. In addition, the IC50 in the data set on MCF7 [4] stood at 1260 nM; in the data set on HepG2 [7], 670 nM; with B16-F10 [8], 1230 nM. The result in the data set on HepG2 [5] was Active. Further, in data set [10], the logP at 10 min was determined as 0.8.
